Legend:
[1] = tested on: LPS-stimulated RAW 264.7 murine macrophage-like cells; conditions: LPS-stimulated RAW 264.7 cells; concentration-dependent
[2] = tested on: RAW 264.7 cells; assay: Steady-state expression of TNF and iNOS transcripts in RAW 264.7 cells; type: cell-based, murine; conditions: RAW 264.7 cells incubated with LPS
[3] = tested on: C57B1/6 mice; assay: Endotoxemia protocol in C57B1/6 mice (LPS alone); type: in vivo
Method: Mice: All animal experiments were approved by the Institutional Animal Care and Use Committee of the University of Pittsburgh. All studies were carried out in C57B1/6 mice (6-10 wk old mice; Charles River Laboratories, Charles River, Me.).
Endotoxemia, in which LPS is directly introduced into an animal, is a highly reproducible means for inducing acute systemic inflammation. […] Circulating levels of TNF and IL-10 increase rapidly and decay quickly, whereas IL-6 levels peak at approximately 2-3 h and decay more slowly. The levels of NO, measured as the stable reaction product NO2^−NO3^−, remain elevated for 24 h. Levels of TNF and NO2^−/NO3^− seem to be saturated at 3 mg/kg whereas IL-6 and IL-10 saturate at 6mg/kg (FIG. 8): at 12 mg/kg (FIG. 9), the levels of most analytes are not much higher as compared to those of animals treated with 6 mg/kg LPS.

| Molecule | concentration of NO2−/NO3− in supernatants [1] | concentration of TNF-α in supernatants [1] | steady-state expression of TNF transcripts [2] | steady-state expression of iNOS transcripts [2] | survival until final time point ([3]; LPS 3, 6 or 12 mg/kg intraperitoneally, 24 h following injection) | time of IL-6 peak level in circulation ([3]; LPS 3 or 6 mg/kg intraperitoneally) [h] |
| --- | --- | --- | --- | --- | --- | --- |
| NC(=O)C1=CN([C@@H]2O[C@H](COP(=O)(O)OP(=O)(O)OC[C@H]3O[C@@H](n4cnc5c(N)ncnc54)[C@H](O)[C@@H]3O)[C@@H](O)[C@H]2O)C=CC1 [NAD+, Reduced nicotinamide adenine dinucleotide] | decreased | decreased | decreased | decreased |  |  |
| lipopolysaccharide [LPS] |  |  | markedly increased | markedly increased | All of the mice survived | 2 to 3 |

Reference: patent publication US20050154536A1, “Two-part drug discovery system” (The University of Pittsburgh - of the Commonwealth System …, priority 2001, published 2005)
